Test results reported in patent US20070042971A1, “Crystalline compound of 4'-demethyl-4'-phosphate-2", 3"-bispentafluorophenoxy-acetyl-4", 6"-ethylidene-beta-d-epipodophyllotoxin glucoside either in its free form or solvated with ethanol” (Pierre Fabre Medicament, priority 2003, published 2007).
Converted amounts (≈) assume the structure as drawn. “Also recorded” adds a separate entry of the source. Read-outs that look alike come from different tables or passages of the source.

Legend:
[1] = Solubility in water and ethanol; format: physicochemical
P388 leukemia [2] = test system: P388 leukemia
[3] = powdered form; for % of degradation products after 1 month at 30° C. with 75% relative humidity: open bottle
[4] = cited from earlier work
P388 leukemia [5] = conditions: mice implanted with the P388 leukemia model; cited from earlier work
[6] = listed as hemiethanolate compound of formula 3 in crystalline form

## COc1cc(C2c3cc4c(cc3[C@@H](OC3OC5COC(C)OC5C(OC(=O)COc5c(F)c(F)c(F)c(F)c5F)C3OC(=O)COc3c(F)c(F)c(F)c(F)c3F)[C@H]3COC(=O)C23)OCO4)cc(OC)c1OP(=O)(O)O (stereo partly drawn) [Compound of formula 2 in amorphous form, 4′-demethylepipodophyllotoxin 2″,3″-bispentafluoro-phenoxyacetyl-4″,6″-ethylidene-β-D-glucoside 4′-phosphate]
[1]; ethanol
  solubility in ethanol (in words): soluble
[1]; water
  solubility in water (in words): is not
P388 leukemia [2]; mouse, in vivo
  antitumor activity (in words): does not induce any significant antitumor activity
  in vivo antitumor activity (in words): did not have the in vivo activity
P388 leukemia [2]; mouse, in vivo, ip, 40 mg/kg
  T/C values (%): 100%
P388 leukemia [2]; mouse, in vivo, ip, 80 mg/kg
  T/C values (%): 114%
P388 leukemia [2]; mouse, in vivo, ip, 160 mg/kg
  T/C values (%): 157%

## COc1cc(C2c3cc4c(cc3[C@@H](OC3OC5COC(C)OC5C(OC(=O)COc5c(F)c(F)c(F)c(F)c5F)C3OC(=O)COc3c(F)c(F)c(F)c(F)c3F)[C@H]3COC(=O)C23)OCO4)cc(OC)c1OP(=O)(O)O (stereo partly drawn) [Crystalline formula 2, 4′-demethylepipodophyllotoxin 2″,3″-bispentafluorophenoxyacetyl-4″,6″-ethylidene-β-D-glucoside 4′-phosphate]
P388 leukemia [2]; mouse, in vivo
  in vivo antitumor activity (in words): exhibits the required pharmacological activity; also recorded: high-level antitumor activity
P388 leukemia [2]; mouse, in vivo, 40 mg/kg
  prolongation of the survival of the animals: 43%
P388 leukemia [2]; mouse, in vivo, 160 mg/kg
  prolongation of the survival of the animals: 200%
P388 leukemia [2]; mouse, in vivo, ip, 40 mg/kg
  T/C values (%): 143%
P388 leukemia [2]; mouse, in vivo, ip, 80 mg/kg
  T/C values (%): 157%
P388 leukemia [2]; mouse, in vivo, ip, 160 mg/kg
  T/C values (%): 300%

## hemiethanolate of 4′-demethylepipodophyllotoxin 2″,3″-bispentafluoro-phenoxyacetyl-4″,6″-ethylidene-β-D-glucoside 4′-phosphate
[3]
  % of degradation products after 1 month at 30° C. with 75% relative humidity: 1.8%
  % of degradation products after 1 month at 40° C. in a closed bottle: 1.5%
[3]; [6]
  % of degradation products after 1 month at 30° C. with 75% relative humidity: 1.8%
  % of degradation products after 1 month at 40° C. in a closed bottle: 1.5%
P388 leukemia [2]; P388 leukemia model, overall, listed as compound of formula 3 in crystalline form
  in vivo antitumor activity (in words): high-level antitumor activity
P388 leukemia [2]; P388 leukemia model, overall, listed as hemiethanolate of formula 3
  in vivo antitumor activity (in words): exhibits the required pharmacological activity
P388 leukemia [2]; dose 40 mg/kg
  prolongation of the survival of the animals: 43%
P388 leukemia [2]; dose 40 mg/kg, single intraperitoneal injection on day 1, median survival treated/control x 100
  T/C values (%): 143%
P388 leukemia [2]; dose 80 mg/kg, single intraperitoneal injection on day 1, median survival treated/control x 100
  T/C values (%): 143%
P388 leukemia [2]; dose 160 mg/kg
  prolongation of the survival of the animals: 229%
P388 leukemia [2]; dose 160 mg/kg, single intraperitoneal injection on day 1, median survival treated/control x 100
  T/C values (%): 329%

## COc1cc([C@@H]2c3cc4c(cc3[C@@H](O[C@@H]3O[C@@H]5CO[C@@H](C)O[C@H]5[C@H](O)[C@H]3O)[C@H]3COC(=O)[C@H]23)OCO4)cc(OC)c1OP(=O)(O)O [Etopophos]
[4]
  solubility in water: 100 mg/mL (≈ 150 mM)

## 4′-demethylepipodophyllotoxin 2″,3″-bispentafluoro-phenoxyacetyl-4″,6″-ethylidene-β-D-glucoside 4′-phosphate [Compound of formula 1]
Conserved at 4° C. and, a fortiori, at ambient temperature
  stability on conservation: degrades over time
Usual conditions of neutral and acid pH and of temperature
  stability: stable
P388 leukemia [5]
  survival: long survival
